Inconclusive results and toxic doses are left out. How the source made its calls: active means survival T/C of 150% or more; inactive means T/C below 125% in these data.
System: CD2F1 mice, L1210 leukemia ip, survival T/C
Assay: NCI In Vivo Anticancer Drug Screen. Data for tumor model L1210 Leukemia (intraperitoneal) in CD2F1 (CDF1) mice
Settings: higher = longer survival
Outline: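 Read-out first: treated-group measurement over vehicle-control measurement, expressed as a ratio. Animals bore a transplanted tumor line and were dosed with compound or vehicle.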

[1] = endpoint: mean survival time, dose: 100.0 mg/kg/injection, schedule: Q04DX003 (ip), vehicle: saline with Tween-80
[2] = endpoint: mean survival time, dose: 200.0 mg/kg/injection, schedule: Q04DX003 (ip), vehicle: saline with Tween-80
[3] = endpoint: mean survival time, dose: 100.0 mg/kg/injection, schedule: Q01DX009 (ip), vehicle: saline with Tween-80
[4] = endpoint: mean survival time, dose: 200.0 mg/kg/injection, schedule: Q01DX009 (ip), vehicle: saline with Tween-80
[5] = endpoint: mean survival time, dose: 400.0 mg/kg/injection, schedule: Q01DX009 (ip), vehicle: saline with Tween-80
[6] = endpoint: mean survival time, dose: 400.0 mg/kg/injection, schedule: Q04DX003 (ip), vehicle: saline with Tween-80
[7] = endpoint: mean survival time, dose: 100.0 mg/kg/injection, schedule: Q04DX002 (ip), vehicle: saline with Tween-80
[8] = endpoint: mean survival time, dose: 200.0 mg/kg/injection, schedule: Q04DX002 (ip), vehicle: saline with Tween-80
[9] = endpoint: mean survival time, dose: 400.0 mg/kg/injection, schedule: Q04DX002 (ip), vehicle: saline with Tween-80
[10] = endpoint: mean survival time, dose: 50.0 mg/kg/injection, schedule: Q01DX009 (ip), vehicle: Klucel (hydroxypropylcellulose) (HPC)
[11] = endpoint: mean survival time, dose: 100.0 mg/kg/injection, schedule: Q01DX009 (ip), vehicle: Klucel (hydroxypropylcellulose) (HPC)
[12] = endpoint: mean survival time, dose: 200.0 mg/kg/injection, schedule: Q01DX009 (ip), vehicle: Klucel (hydroxypropylcellulose) (HPC)

Measured: T/C

COc1cccc(NC(=O)NC2C(OC(C)=O)OC(COC(C)=O)C(OC(C)=O)C2OC(C)=O)c1 (configuration not stated)
inactive: endpoint: mean survival time, dose: 12.5 mg/kg/injection, schedule: Q01DX009 (ip), vehicle: other 98 % of control | endpoint: mean survival time, dose: 25.0 mg/kg/injection, schedule: Q01DX009 (ip), vehicle: other 98 % of control | endpoint: mean survival time, dose: 50.0 mg/kg/injection, schedule: Q01DX009 (ip), vehicle: other 90 % of control | endpoint: mean survival time, dose: 100.0 mg/kg/injection, schedule: Q01DX009 (ip), vehicle: other 90 % of control | endpoint: mean survival time, dose: 200.0 mg/kg/injection, schedule: Q01DX009 (ip), vehicle: other 96 % of control

CC(=O)C(c1ccccc1)N(C)C(=O)c1ccccc1 (configuration not stated)
inactive: endpoint: mean survival time, dose: 100.0 mg/kg/injection, schedule: Q01DX009 (ip), vehicle: saline 95 % of control | endpoint: mean survival time, dose: 200.0 mg/kg/injection, schedule: Q01DX009 (ip), vehicle: saline 94 % of control | endpoint: mean survival time, dose: 400.0 mg/kg/injection, schedule: Q01DX009 (ip), vehicle: saline 104 % of control

CC1(C(Cl)(Cl)Cl)C=CC(=O)C=C1
inactive: endpoint: mean survival time, dose: 50.0 mg/kg/injection, schedule: Q04DX003 (ip), vehicle: saline with Tween-80 101 % of control | [1] 101 % of control | [2] 97 % of control

CC(=O)NC(C(=O)O)C(C)c1c[nH]c2ccccc12 (configuration not stated)
inactive: [3] 104 % of control | [1] 97 % of control | [4] 96 % of control | [2] 97 % of control | [5] 95 % of control | [6] 91 % of control

Nc1cc(I)c2cccnc2c1O
inactive: endpoint: mean survival time, dose: 6.25 mg/kg/injection, schedule: Q01DX009 (ip), vehicle: saline 96 % of control | endpoint: mean survival time, dose: 12.5 mg/kg/injection, schedule: Q01DX009 (ip), vehicle: saline 111 % of control | endpoint: mean survival time, dose: 25.0 mg/kg/injection, schedule: Q01DX009 (ip), vehicle: saline 100 % of control | endpoint: mean survival time, dose: 50.0 mg/kg/injection, schedule: Q01DX009 (ip), vehicle: saline 108 % of control

O=C(O)CNCNCC(=O)O
inactive: endpoint: mean survival time, dose: 100.0 mg/kg/injection, schedule: Q04DX002 (ip), vehicle: saline 90 % of control | endpoint: mean survival time, dose: 200.0 mg/kg/injection, schedule: Q04DX002 (ip), vehicle: saline 86 % of control

CCOC(=O)Cc1cccc(CC(O)(c2ccccc2)c2ccccc2)n1
inactive: [3] 100 % of control | endpoint: mean survival time, dose: 100.0 mg/kg/injection, schedule: Q04DX003 (ip), vehicle: saline 92 % of control | [4] 98 % of control | endpoint: mean survival time, dose: 200.0 mg/kg/injection, schedule: Q04DX003 (ip), vehicle: saline 90 % of control | [5] 100 % of control | endpoint: mean survival time, dose: 400.0 mg/kg/injection, schedule: Q04DX003 (ip), vehicle: saline 87 % of control

CCOCCN=C(N)C(N)=NCCOCC
inactive: endpoint: mean survival time, dose: 50.0 mg/kg/injection, schedule: Q04DX002 (ip), vehicle: saline with Tween-80 102 % of control | [7] 98 % of control | [8] 94 % of control | [9] 94 % of control

O=C(Nc1ccc(F)c(Cl)c1)Oc1ccc(OCc2ccccc2)cc1
inactive: [10] 87 % of control | [11] 98 % of control | [12] 93 % of control

CC(C)NCCCC(=O)O
inactive: endpoint: mean survival time, dose: 12.5 mg/kg/injection, schedule: Q01DX009 (ip), vehicle: water 96 % of control | endpoint: mean survival time, dose: 25.0 mg/kg/injection, schedule: Q01DX009 (ip), vehicle: water 98 % of control | endpoint: mean survival time, dose: 50.0 mg/kg/injection, schedule: Q01DX009 (ip), vehicle: water 90 % of control | endpoint: mean survival time, dose: 100.0 mg/kg/injection, schedule: Q01DX009 (ip), vehicle: water 98 % of control | endpoint: mean survival time, dose: 200.0 mg/kg/injection, schedule: Q01DX009 (ip), vehicle: water 95 % of control

Nc1ccc(CCCCc2nc(N)nc(N)c2-c2ccc(Cl)c(Cl)c2)cc1
inactive: [1] 98 % of control | [2] 100 % of control | [6] 113 % of control

COC(=O)c1ccccc1I
inactive: [7] 107 % of control | [8] 96 % of control | [9] 107 % of control

Nc1nc(N)c2nc(CCOc3ccc(C(=O)NC(CCC(=O)O)C(=O)O)cc3)cnc2n1 (configuration not stated)
inactive: endpoint: mean survival time, dose: 0.38 mg/kg/injection, schedule: Q01DX009 (ip), vehicle: sodium bicarbonate 87 % of control | endpoint: mean survival time, dose: 0.75 mg/kg/injection, schedule: Q01DX009 (ip), vehicle: sodium bicarbonate 90 % of control | endpoint: mean survival time, dose: 1.5 mg/kg/injection, schedule: Q01DX009 (ip), vehicle: sodium bicarbonate 87 % of control | endpoint: mean survival time, dose: 3.0 mg/kg/injection, schedule: Q01DX009 (ip), vehicle: sodium bicarbonate 87 % of control | endpoint: mean survival time, dose: 6.0 mg/kg/injection, schedule: Q01DX009 (ip), vehicle: sodium bicarbonate 98 % of control | endpoint: mean survival time, dose: 12.0 mg/kg/injection, schedule: Q01DX009 (ip), vehicle: distilled water + Tween-80 104 % of control | endpoint: mean survival time, dose: 24.0 mg/kg/injection, schedule: Q01DX009 (ip), vehicle: distilled water + Tween-80 102 % of control | endpoint: mean survival time, dose: 48.0 mg/kg/injection, schedule: Q01DX009 (ip), vehicle: distilled water + Tween-80 104 % of control

CSc1cccc(NC(=O)OCCOc2ccc(NC(C)=O)cc2)c1
inactive: [3] 101 % of control | [4] 97 % of control | [5] 93 % of control

O=C1NC(=O)C(=Cc2cc3c(cc2Br)OCO3)C(=O)N1
inactive: endpoint: mean survival time, dose: 25.0 mg/kg/injection, schedule: Q01DX009 (ip), vehicle: Klucel (hydroxypropylcellulose) (HPC) 91 % of control | [10] 93 % of control | [11] 89 % of control | [7] 104 % of control | [12] 100 % of control | [8] 112 % of control | [9] 108 % of control

c1ccc(N=Nn2c3ccccc3c3ccccc32)cc1
inactive: endpoint: mean survival time, dose: 100.0 mg/kg/injection, schedule: Q01DX001 (ip), vehicle: saline with Tween-80 104 % of control | endpoint: mean survival time, dose: 200.0 mg/kg/injection, schedule: Q01DX001 (ip), vehicle: saline with Tween-80 102 % of control | endpoint: mean survival time, dose: 264.0 mg/kg/injection, schedule: Q01DX001 (ip), vehicle: saline with Tween-80 104 % of control | endpoint: mean survival time, dose: 400.0 mg/kg/injection, schedule: Q01DX001 (ip), vehicle: saline with Tween-80 120 % of control | endpoint: mean survival time, dose: 600.0 mg/kg/injection, schedule: Q01DX001 (ip), vehicle: saline with Tween-80 104 % of control

COc1cc2c3c(c1)-c1c(ccc(OC)c1OC)CC3N(CCCl)CC2 (configuration not stated)
inactive: endpoint: mean survival time, dose: 25.0 mg/kg/injection, schedule: Q04DX003 (ip), vehicle: water 98 % of control | endpoint: mean survival time, dose: 50.0 mg/kg/injection, schedule: Q04DX003 (ip), vehicle: water 105 % of control

CC(=O)CC(Br)CBr (configuration not stated)
inactive: [1] 96 % of control

COC(=O)c1cccc2c1OCO2
inactive: [3] 101 % of control | [1] 100 % of control | [4] 101 % of control | [2] 100 % of control | [5] 101 % of control | [6] 103 % of control

ClCCOCC1CO1 (configuration not stated)
inactive: endpoint: mean survival time, dose: 150.0 mg/kg/injection, schedule: Q04DX003 (ip), vehicle: saline 101 % of control | endpoint: mean survival time, dose: 225.0 mg/kg/injection, schedule: Q04DX003 (ip), vehicle: saline 104 % of control | endpoint: mean survival time, dose: 335.0 mg/kg/injection, schedule: Q04DX003 (ip), vehicle: saline 96 % of control

Nc1nc2c(ncn2C2OC(CO)C(O)C2O)c(=O)[n]1[Hg][c]1ccccc1 (configuration not stated)
inactive: endpoint: median survival time, dose: 0.79 mg/kg/injection, schedule: Q01DX005 (ip), vehicle: saline 103 % of control | endpoint: median survival time, dose: 1.56 mg/kg/injection, schedule: Q01DX005 (ip), vehicle: saline 100 % of control | endpoint: median survival time, dose: 3.12 mg/kg/injection, schedule: Q01DX005 (ip), vehicle: saline 100 % of control | endpoint: median survival time, dose: 6.25 mg/kg/injection, schedule: Q01DX005 (ip), vehicle: saline 100 % of control | endpoint: median survival time, dose: 12.5 mg/kg/injection, schedule: Q01DX005 (ip), vehicle: saline 108 % of control

Source: PubChem BioAssay AID256 (DTP/NCI, 2004)
